# From PubChem BioAssay (NCI)
#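 Exposure lasted 48 hours, with cells grown in 96-well plates and compounds tested at five concentrations. The concentration for full growth arrest is given as TGI.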
# Tested on: U251 CNS
# Assay: NCI-60 cell line screen, 48 h
row,Structure (SMILES),TGI [µM]
1,c1cc2c(ncc3cscc32)s1,> 100
2,CN(C)C(c1ccccc1)C(O)c1ccccc1 (configuration not stated),> 100
3,FC(F)(F)c1nc(-c2ccccc2)oc1Sc1nnc(Sc2oc(-c3ccccc3)nc2C(F)(F)F)s1,> 57.2
4,O=C(Nc1ccc(Cl)cc1Cl)C(=O)C(C(=O)c1ccncc1)C1OC(=O)c2ccccc21 (configuration not stated),> 100

# Tested on: HT29 colon
# Assay: NCI-60 cell line screen, 48 h
row,Structure (SMILES),TGI [µM]
1,c1cc2c(ncc3cscc32)s1,> 100
2,CN(C)C(c1ccccc1)C(O)c1ccccc1 (configuration not stated),> 100
3,FC(F)(F)c1nc(-c2ccccc2)oc1Sc1nnc(Sc2oc(-c3ccccc3)nc2C(F)(F)F)s1,> 100
4,O=C(Nc1ccc(Cl)cc1Cl)C(=O)C(C(=O)c1ccncc1)C1OC(=O)c2ccccc21 (configuration not stated),> 100

# Tested on: HCC-2998 colon
# Assay: NCI-60 cell line screen, 48 h
row,Structure (SMILES),TGI [µM]
1,c1cc2c(ncc3cscc32)s1,> 100
2,CN(C)C(c1ccccc1)C(O)c1ccccc1 (configuration not stated),> 100
3,FC(F)(F)c1nc(-c2ccccc2)oc1Sc1nnc(Sc2oc(-c3ccccc3)nc2C(F)(F)F)s1,> 100
4,O=C(Nc1ccc(Cl)cc1Cl)C(=O)C(C(=O)c1ccncc1)C1OC(=O)c2ccccc21 (configuration not stated),> 100

# Tested on: NCI-H522 lung
# Assay: NCI-60 cell line screen, 48 h
row,Structure (SMILES),TGI [µM]
1,c1cc2c(ncc3cscc32)s1,> 100
2,CN(C)C(c1ccccc1)C(O)c1ccccc1 (configuration not stated),> 100
3,FC(F)(F)c1nc(-c2ccccc2)oc1Sc1nnc(Sc2oc(-c3ccccc3)nc2C(F)(F)F)s1,36.8
4,O=C(Nc1ccc(Cl)cc1Cl)C(=O)C(C(=O)c1ccncc1)C1OC(=O)c2ccccc21 (configuration not stated),> 100

# Tested on: SK-OV-3 ovarian
# Assay: NCI-60 cell line screen, 48 h
row,Structure (SMILES),TGI [µM]
1,CN(C)C(c1ccccc1)C(O)c1ccccc1 (configuration not stated),> 100
2,FC(F)(F)c1nc(-c2ccccc2)oc1Sc1nnc(Sc2oc(-c3ccccc3)nc2C(F)(F)F)s1,> 100
3,O=C(Nc1ccc(Cl)cc1Cl)C(=O)C(C(=O)c1ccncc1)C1OC(=O)c2ccccc21 (configuration not stated),> 100

# Tested on: SF-539 CNS
# Assay: NCI-60 cell line screen, 48 h
row,Structure (SMILES),TGI [µM]
1,c1cc2c(ncc3cscc32)s1,> 100
2,CN(C)C(c1ccccc1)C(O)c1ccccc1 (configuration not stated),> 100
3,FC(F)(F)c1nc(-c2ccccc2)oc1Sc1nnc(Sc2oc(-c3ccccc3)nc2C(F)(F)F)s1,> 100
4,O=C(Nc1ccc(Cl)cc1Cl)C(=O)C(C(=O)c1ccncc1)C1OC(=O)c2ccccc21 (configuration not stated),> 100

# Tested on: KM12 colon
# Assay: NCI-60 cell line screen, 48 h
row,Structure (SMILES),TGI [µM]
1,c1cc2c(ncc3cscc32)s1,> 100
2,CN(C)C(c1ccccc1)C(O)c1ccccc1 (configuration not stated),> 100
3,FC(F)(F)c1nc(-c2ccccc2)oc1Sc1nnc(Sc2oc(-c3ccccc3)nc2C(F)(F)F)s1,> 100
4,O=C(Nc1ccc(Cl)cc1Cl)C(=O)C(C(=O)c1ccncc1)C1OC(=O)c2ccccc21 (configuration not stated),> 100

# Tested on: NCI-H460 lung
# Assay: NCI-60 cell line screen, 48 h
row,Structure (SMILES),TGI [µM]
1,c1cc2c(ncc3cscc32)s1,> 100
2,CN(C)C(c1ccccc1)C(O)c1ccccc1 (configuration not stated),> 100
3,FC(F)(F)c1nc(-c2ccccc2)oc1Sc1nnc(Sc2oc(-c3ccccc3)nc2C(F)(F)F)s1,> 100
4,O=C(Nc1ccc(Cl)cc1Cl)C(=O)C(C(=O)c1ccncc1)C1OC(=O)c2ccccc21 (configuration not stated),> 100

# Tested on: MCF7 breast
# Assay: NCI-60 cell line screen, 48 h
row,Structure (SMILES),TGI [µM]
1,c1cc2c(ncc3cscc32)s1,> 100

# Tested on: MOLT-4 leukemia
# Assay: NCI-60 cell line screen, 48 h
row,Structure (SMILES),TGI [µM]
1,c1cc2c(ncc3cscc32)s1,> 100
2,CN(C)C(c1ccccc1)C(O)c1ccccc1 (configuration not stated),> 100
3,FC(F)(F)c1nc(-c2ccccc2)oc1Sc1nnc(Sc2oc(-c3ccccc3)nc2C(F)(F)F)s1,17
4,O=C(Nc1ccc(Cl)cc1Cl)C(=O)C(C(=O)c1ccncc1)C1OC(=O)c2ccccc21 (configuration not stated),> 100

# Tested on: PC-3 prostate
# Assay: NCI-60 cell line screen, 48 h
row,Structure (SMILES),TGI [µM]
1,c1cc2c(ncc3cscc32)s1,> 100

# Tested on: KM20L2 colon
# Assay: NCI-60 cell line screen, 48 h
row,Structure (SMILES),TGI [µM]
1,CN(C)C(c1ccccc1)C(O)c1ccccc1 (configuration not stated),> 100
2,FC(F)(F)c1nc(-c2ccccc2)oc1Sc1nnc(Sc2oc(-c3ccccc3)nc2C(F)(F)F)s1,> 100
3,O=C(Nc1ccc(Cl)cc1Cl)C(=O)C(C(=O)c1ccncc1)C1OC(=O)c2ccccc21 (configuration not stated),> 100

# Tested on: HCT-116 colon
# Assay: NCI-60 cell line screen, 48 h
row,Structure (SMILES),TGI [µM]
1,c1cc2c(ncc3cscc32)s1,> 31.6
2,FC(F)(F)c1nc(-c2ccccc2)oc1Sc1nnc(Sc2oc(-c3ccccc3)nc2C(F)(F)F)s1,> 100
3,O=C(Nc1ccc(Cl)cc1Cl)C(=O)C(C(=O)c1ccncc1)C1OC(=O)c2ccccc21 (configuration not stated),> 100

# Tested on: K-562 leukemia
# Assay: NCI-60 cell line screen, 48 h
row,Structure (SMILES),TGI [µM]
1,c1cc2c(ncc3cscc32)s1,> 100
2,CN(C)C(c1ccccc1)C(O)c1ccccc1 (configuration not stated),> 100
3,FC(F)(F)c1nc(-c2ccccc2)oc1Sc1nnc(Sc2oc(-c3ccccc3)nc2C(F)(F)F)s1,> 64.5
4,O=C(Nc1ccc(Cl)cc1Cl)C(=O)C(C(=O)c1ccncc1)C1OC(=O)c2ccccc21 (configuration not stated),> 100

# Tested on: DMS 114 small cell lung
# Assay: NCI-60 cell line screen, 48 h
row,Structure (SMILES),TGI [µM]
1,c1cc2c(ncc3cscc32)s1,> 100
2,CN(C)C(c1ccccc1)C(O)c1ccccc1 (configuration not stated),> 100
3,FC(F)(F)c1nc(-c2ccccc2)oc1Sc1nnc(Sc2oc(-c3ccccc3)nc2C(F)(F)F)s1,21.7
4,O=C(Nc1ccc(Cl)cc1Cl)C(=O)C(C(=O)c1ccncc1)C1OC(=O)c2ccccc21 (configuration not stated),> 100

# Tested on: LXFL 529 NSCLC
# Assay: NCI-60 cell line screen, 48 h
row,Structure (SMILES),TGI [µM]
1,c1cc2c(ncc3cscc32)s1,> 100
2,CN(C)C(c1ccccc1)C(O)c1ccccc1 (configuration not stated),> 100
3,FC(F)(F)c1nc(-c2ccccc2)oc1Sc1nnc(Sc2oc(-c3ccccc3)nc2C(F)(F)F)s1,> 64.6
4,O=C(Nc1ccc(Cl)cc1Cl)C(=O)C(C(=O)c1ccncc1)C1OC(=O)c2ccccc21 (configuration not stated),> 100

# Tested on: OVCAR-8 ovarian
# Assay: NCI-60 cell line screen, 48 h
row,Structure (SMILES),TGI [µM]
1,c1cc2c(ncc3cscc32)s1,> 100
2,FC(F)(F)c1nc(-c2ccccc2)oc1Sc1nnc(Sc2oc(-c3ccccc3)nc2C(F)(F)F)s1,59.8
